Tests used:
[1] = H2O2 decomposition and O2 production analysis; settings: after 24 hours, pH 7.4
Procedure: Then, 50 μl of the solution was added to a solution of 100 μL of Ti (SO4)2 containing 1.33 mL of 24% Ti(SO4)2 and 8.33 mL of H2SO4 in 50 mL of deionized water after 24 hours. After the reaction was completed, the absorbance of the solution was measured at 405 nm to evaluate the H2O2 concentration.
We performed H2O2-scavenging effect of AuNPs and intracellular ROS analysis before pro-inflammatory cytokine secretion assay. Specifically, after treatment with Triamcinolone and AuNPs under physiological conditions (pH 7.4), concentration of H2O2 was analyzed.

[2] = Hydrodynamic size distribution, potential and polydispersity index (Zetasizer Nano); type: physicochemical
M1-activated FLS = experiment: Cytokine expression in FLSs activated with M1 macrophage conditioned medium; type: cell-based, human
Procedure: (§1) To measure cytokine expression, RT-PCR (CFX 384, Bio-Rad, Hercules, CA, USA) was performed according to the manufacturer's protocol. […] Then, total RNA was isolated from cells (5×10^5 cells/well in a total of 6-well plates) using TRIzol (15596018, Thermo Fisher Scientific) and first strand complementary DNA (cDNA) using RT premix (Promega) was synthesized. Reverse transcription conditions were carried out at 45° C. for 60 minutes and at 95° C. for 5 minutes. Briefly, in each final reaction tube, 2 μL of cDNA (1 μg), 1 μL of sense and antisense primer solutions (0.4 μM), 12.5 μL of SYBR Premix Ex Taq (Takara Bio Inc.) and 9.5 μL of dH2O. The cycle threshold (Ct) value was calculated using the CFX96 Real-Time PCR Detection System (Bio-Rad) software, and the comparative Ct method (2ΔΔCt model) was used to calculate the relative fold change of gene expression. It was then normalized to mean GAPDH expression.
Recently, the role of macrophages in inflamed synovial membranes has been of great interest due to the inflammatory effects of these cells during pathogens of RA and OA in joints (A. Kennedy et al., Front. Immunol., 2:52, 2011). The present inventors therefore investigated the stimulation of FLS pro-inflammatory activity by activated M1 macrophage cytokines (from LPS-treated J774 cells to conditioned medium).

CIA-induced mice = experiment: Collagen-induced arthritis (CIA) model; type: in vivo, DBA/1 mice; settings: for paw edema and paw score: ankle joint, 48 days
Procedure: DBA/1 mice (male, 4-6 weeks old, body weight 20-25 g) were purchased from Orient Bio (Seoul, Korea) and the mice were subjected to a 12-hour light/dark cycle (lit at 6:30 AM) for 7-14 days. They were placed in a specific pathogen-free environment with temperature and humidity controlled and acclimatized before the experiment. All animal experiments were performed according to the Gachon University Laboratory Animal Care and Use Guide. […] Animals with […] arthritis were randomly assigned to 6 groups (n=6) after the first signs of inflammation were observed on day 27.
The status of RA was assessed visually by grading paw swelling according to the following criteria: 0, no swelling; 1, inflammation and swelling in one toe; 2, more than one toe, but inflammation and swelling throughout the foot; 3, moderate swelling of the entire foot; 4, Severe erythema and swelling of the entire foot and ankle (H. E. Scales, et al., Rheumatology (Oxford) 55 (3): 564-572, 2016). A total score of four paws was recorded for each mouse as the arthritis index. […] Each treatment group was administered twice weekly for 3 weeks, 2 mg/kg or 5 mg/kg condition, and the arthritis index of each group was recorded over time. After 3 weeks of treatment, mice were sacrificed, and limbs were collected and histological analysis was performed.
Histopathology was evaluated to determine the characteristics of RA including macrophage phenotype, synovitis and cartilage destruction. Specifically, on day 48, the mice were sacrificed and the ankle joint was recovered. The […] was fixed in 4% paraformaldehyde at 4° C. for 3 days, transferred to a descaling solution (Sigma), and left on an orbital shaker. Then, the tissue was decalcified at room temperature for 14 days, and the non-calcified ankle joint was embedded in paraffin and then cut into 3 μm using a microtome. For immunofluorescence histochemistry, tissue sections were dewaxed and TNF-α (Abcam, ab1793), IL-1β (Abcam, ab9722), IL-6 (Abcam, ab7737), INF-γ (Novus Biotech, NBP1), CD86 (Invitrogen, 13-0862-82), and Dectin-1 (Abcam, ab140039) were stained with primary antibodies. The secondary antibodies used in the present invention are goat anti-rat Alexa Fluor 488 (Abcam) for INF-γ, goat anti-mouse Alexa Fluor 488 (Abcam) for TNF-α, goat anti-mouse Alexa Fluor 568 for CD86 (Abcam), goat anti-rabbit Alexa Fluor 488 (Abcam) for IL-1β and IL-6 and goat anti-rabbit Alexa Fluor 568 (Abcam) for Dectin-1. The tissue sections were then stained with DAPI mounting solution and observed using a confocal fluorescence microscope (LSM700, Carl Zeiss) and EVOS M7000, Invitrogen. Fluorescence intensity was also quantified using ImageJ, Zen Lite (Zeiss) and Celleste (Invitrogen).

[3] = test system: macrophages treated with TNF-α-activated FLSs medium; experiment: Macrophage repolarization after TNF-α-activated FLSs medium; type: cell-based
Procedure: as §1
Macrophages of the synovium can stimulate pro-inflammatory FLSs activity by infiltrating inflamed tissues and increasing pro-inflammatory cytokine levels (M. Asif Amin et al., Semin. Immunopathol., 39 (4): 385-393, 2017). For this reason, modulating macrophage differentiation (ie, repolarization) is important in alleviating arthritis disease (J. Kim et al., ACS Nano, 13 (3): 3206-3217, 2019).

SMILES | reduction of H2O2 concentration [1] | electric potential caused by the surface charge ([2]; Example 1, Triam series) | hydrodynamic size ([2]; Example 1, Triam series) [nm] | level of FLSs pro-inflammatory cytokines (TNF-α, IL-1β and IL-6) (M1-activated FLS; FLSs treated with M1 medium) | anti-inflammatory mRNA (IL-4, IL-10 and Arg-1) synthesis (M1-activated FLS; M1-activated FLS) | level of CD86 (M1 marker) in ankle joint (CIA-induced mice; 2 mg/kg) | level of Dectin-1 (M2 marker) in ankle joint (CIA-induced mice; 2 mg/kg) | paw edema and paw score (CIA-induced mice; 2 mg/kg) | level of CD86 (M1 marker) in ankle joint (CIA-induced mice; 5 mg/kg) | level of Dectin-1 (M2 marker) in ankle joint (CIA-induced mice; 5 mg/kg) | paw edema and paw score (CIA-induced mice; 5 mg/kg) | M2 response (IL-4, Arg-1 and IL-10 expression) [3] | inflammatory marker levels (TNF-α, IL-1β and IL-6 expression) [3] | electric potential caused by the surface charge ([2]; Example 9, Dex series) | hydrodynamic size ([2]; Example 9, Dex series) [nm]
C[C@]12C=CC(=O)C=C1CC[C@H]1[C@@H]3C[C@@H](O)[C@](O)(C(=O)CO)[C@@]3(C)C[C@H](O)[C@@]12F [Triam, Triamcinolone] | about 48% | approached neutral charges | 75 | effectively reduced | did not induce anti-inflammatory cytokine release | reduced the level of the M1 marker | did not sufficiently restore the level of the M2 marker | did not show sufficient effect | reduced the level of the M1 marker | did not sufficiently restore the level of the M2 marker | did not show sufficient effect | did not induce noticeable M2 marker expression | decreased significantly |  | 
C[C@@H]1C[C@H]2[C@@H]3CCC4=CC(=O)C=C[C@]4(C)[C@@]3(F)[C@@H](O)C[C@]2(C)[C@@]1(O)C(=O)CO [free Dex, dexamethasone] |  |  |  |  |  |  |  |  |  |  |  |  |  | neutrally charged | 125

— patent US20250000876A1, “Novel therapeutic agent for inflammatory disease” (Gachon University of Industry-Academic cooperation …, priority 2020, published 2025)
